# Results from patent US6649648B1, “Therapeutic methods and compositions involving isoflavones” (Novogen Research Pty Limited, priority 1996, dated 2003).
# Legend:
# [1] = system: human LDL; assay: Redox Test (LDL lipid oxidation in the presence of vitamin E); type: biochemical; conditions: for Redox Index: human LDL, 20% consumption of endogenous α-tocopherol, BHT 10 μm, lower value = higher activity
# Excerpt: 2. Redox Test—This test measures the ability of a compound to prevent LDL lipid oxidation in the presence of vitamin E. The test is a physiological test, vitamin E (α-tocopherol) is present with LDL in the blood stream, and LDL oxidation is believed to be one of the major factors of the development of atherosclerosis. The lower values, the higher the redox activity. […] The test indirectly assesses the ability of a compound to synergise with α-tocopherol in human LDL undergoing mild and chemically controlled oxidation. Oxidation is measured by the accumulation of cholesterylester hydroperoxides at a time point corresponding to 20% consumption of endogenous α-tocopherol. Butylated hydroxytoluene (BHT 10 μm) is used as a positive control. The redox index is measured by the relative extent of oxidation of LDL in the presence of the sample divided by the relative extent of oxidation in the absence of the test compounds. […] Tests were carried out according to Bowry, V. W. et al (1995) J. Bio. Chem. 270 (11) 5756-5763.
# [2] = system: breast cancer; assay: Prevention of breast cancer in high risk women, transdermal patch; type: in vivo, human; conditions: same manner and amount, six month trial period
# Procedure: This study investigated whether compounds 1 through 19 administered transdermally each day through a skin patch could be used to prevent breast cancer or metastatic cancers following cancer therapy. Patches were prepared that contained a lipophylic carrier cream which is readily absorbed through the skin. The cream comprised a glycerol cold cream which contained glycerin and peanut oil. A selected active compound from any one of compounds of the formulae 1 to 19 is mixed with the lipophylic cream such that each patch comprises 10 mg to 100 mg of active compound. The patch is applied to the skin each day and rapid absorption occurs. After two hours the patch is removed. Alternatively, the patch may be left on for a greater part of each day.
# [3] = system: bowel cancer; assay: Patients with advanced or terminal bowel cancer; type: in vivo, human; conditions: intravenous infusion 2 g daily, three weeks, advanced bowel cancer
# Procedure: A patient suffering from advanced bowel cancer is treated daily for three weeks with an intravenous infusion of 2 g of the compound of the formula 14 dissolved in sterile saline. […] Progression of the tumour is also arrested over the treatment period.
# A second patient suffering from the same condition is treated in the same manner as the above patient with the exception that the 2 g dose of the active compound is administered by way of bolus injection.
# In a further series of experiments a group of patients suffering from terminal bowel cancer were treated by bolus daily injections (intravenous or intramuscular) of 2 g of a compound selected from one of the formulae 1 to 19. Over the test period there is shown to be a marked reduction in pain and discomfort. Tumour markers (carcino-embryonic antigen (CEA)) are reduced as evidenced by blood analysis and tumour spread decreased.
# [4] = system: LDL; assay: LDL Antioxidation Test; type: biochemical; conditions: for Lag Times / % Increase Over Control: LDL 0.25 mg/ml, 10 μm active compound, 4 μm Cu++; for Lag Times: control 20 min; for antioxidant potency (in words): conclusion from the LDL antioxidation test; for % Increase Over Control: lag time
# Procedure: 1. LDL Antioxidation Test—This test measures the ability of a compound to directly scavenge free radicals or to chelate transition metals. […] These tests were carried out according to the procedure of Esterbauer et al Free. Rad. Res. Coms. (1989) 6, 67-75. Briefly, LDL (0.25 mg/ml) is incubated with 10 μm active compound in the presence of 4 μm Cu^++, and LDL was assayed for oxidation by HPLC analysis.
# [5] = system: rat aortic rings; assay: Vascular reactivity, rat aortic rings with noradrenaline; type: cell-based; conditions: rat aortic ring, vasoconstrictor noradrenaline
# Procedure: Vascular reactivity studies using rat aortic rings is generally regarded as directly predictive of biological effects of candidate compounds in the treatment of the above conditions (Karapapanis, S. et al (1994) Heptology, 20, 6, 1516-1521). The inhibitory effect on restrictor responses in the aortic ring is measured in the presence of the vasoconstrictor noradrenaline according to the procedure of Karapapanis (supra).
# [6] = system: K562; assay: Anti-cancer screening assay, inhibition of cell proliferation; type: cell-based, human; conditions: cell line printed K563 at the result
# Procedure: (§1) The activity of compounds of the present invention in inhibiting the growth of hormone responsive cancer cells were tested using the well characterised human responsive cancer cell lines K562 and HL60. The anti-cancer screening assay measured inhibition of cell proliferation which results in terminal differential cell death.
# [7] = system: HL60; assay: as above; type: cell-based, human
# Procedure: as §1
# [8] = system: LDL receptor; assay: LDL Receptor Studies, LDL uptake into liver cells; type: cell-based
# Excerpt: 4. LDL Receptor Studies—Treatment of atherosclerosis, myocardial infarction, stroke and hypertension. This will establish that compounds which up-regulate the LDL receptor, lead to decreased circulating LDL, and therefore reduces the prospect of atherosclerosis, myocardial infarction, stroke and hypertension. Using an assay according to Stephan Z. F. and Yurachek, E. C. (1993) J. Lipid. Res. 34, 325-330, it is shown that the compounds of the formulae 1 to 19 are effective in increasing LDL uptake into liver cells, this being directly predictive of decrease of circulating LDL in the human blood stream.
molecule,measurement,setting,value
"Cc1cc(C(C)(C)C)c(O)c(C(C)(C)C)c1 [BHT, Butylated hydroxytoluene, reference compound]",Redox Index,[1],6.3
"C=C(C(=O)c1ccc(O)cc1O)c1ccc(O)cc1 [Compound 11, 2-dehydro-O-demethylangolensin]",evidence of breast cancer or other metastatic cancer,[2],same beneficial results
"CC(C(=O)c1c(O)cc(O)cc1O)c1ccc(O)cc1 (stereo not shown) [Compound 14, 6-hydroxy-O-demethylangolensin]",cancer markers,[3],reduction
same,pain and discomfort,[3],significantly reduced
same,progression of the tumour,[3],arrested
same,evidence of breast cancer or other metastatic cancer,[2],same beneficial results
Oc1ccc(C2=Cc3ccc(O)cc3OC2)cc1 [Dehydroequol],Lag Times,[4],>140 min
same,antioxidant potency (in words),[4],extremely potent antixoidants
same,% Increase Over Control,[4],>600%
same,synergistic interaction with vitamin E to prevent oxidation,[1]; Redox Test,interacts synergistically with vitamin E to prevent oxidation
same,Redox Index,[1],4.5±1.2
"O=C1c2ccc(O)cc2OCC1c1ccc(O)cc1 (stereo not shown) [Dihydrodaidzein, dihydrodaidzein]",inhibitory effect on vaso-constrictor responses to noradrenaline,[5],potent inhibitory effects on responses to noradrenaline
"O=C1c2c(O)cc(O)cc2OCC1c1ccc(O)cc1 (stereo not shown) [dihydrogenestein, Dihydrogenistein]",inhibitory effect on vaso-constrictor responses to noradrenaline,[5],potent inhibitory effects on responses to noradrenaline
Oc1ccc([C@H]2COc3cc(O)ccc3C2)cc1 [equol],inhibitory effect on vaso-constrictor responses to noradrenaline,[5],potent inhibitory effects on responses to noradrenaline
same,inhibition of growth of cell line,[6],potent inhibitors of growth
same,inhibition of growth of cell line,[7],potent inhibitors of growth
same,increase of LDL uptake into liver cells,[8],particularly active
Tetrahydrodaidzein,inhibitory effect on vaso-constrictor responses to noradrenaline,[5],potent inhibitory effects on responses to noradrenaline
same,inhibition of growth of cell line,[7],strong inhibition
same,Lag Times,[4],>140 min
same,antioxidant potency (in words),[4],extremely potent antixoidants
same,% Increase Over Control,[4],>600%
